In one data set the target is Human HDAC1 (Homo sapiens (Human), UniProt Q13547). Put plainly: HDAC enzymatic assay, HDAC1. It is filed as biochemical. The following applies: 10-dose IC50 mode with a 3-fold serial dilution; read-out: HDAC subtypes IC50 HDAC1. As for the experimental part:
(§1) The IC50 values for aforementioned compounds against HDACs were determined. HDAC 1 to 11 can be assayed by using acetylated AMC-labeled peptide substrate.
(§2) Human HDAC1 GenBank Accession No. NM_004964): Full length with C-terminal GST tag, MW=79.9 kDa, Human HDAC2 (GenBank Accession No. Q92769): Full length with C-terminal His tag, MW=60 kDa. Human HDAC3/NcoR2 (GenBank Accession No. […] for HDAC3, GenBank Accession No. NM_006312 for NcoR2): Complex of human HDAC3, full length with C-terminal His tag, MW=49.7 kDa, and human NCOR2, N-terminal GST tag, MW=39 kDa. Human HDAC6 (GenBank Accession No. BC069243): Full length with N-terminal GST tag, MW=159 kDa. Human HDAC8 (GenBank Accession No. NM018486): Full length, MW=42 kDa, expressed in an E. coli expression system.
(§3) Human HDAC1, Human HDAC2, Human HDAC3/NcoR2, Human HDAC6, Human HDAC10, and Human HDAC11 were all expressed by baculovirus expression system in Sf9 cells.
(§4) 50 μM HDAC substrate. 1% DMSO final. Incubation for 2 hours at 30° C.

The next data set has as its target Human HDAC6 (Homo sapiens (Human), UniProt Q9UBN7). Put plainly: HDAC enzymatic assay, HDAC6. Particulars: 10-dose IC50 mode with a 3-fold serial dilution; read-out: HDAC subtypes IC50 HDAC6. In kind it is biochemical. As for the experimental part: as §1, §2, §3, §4
The subject of another data set is MV4-11. The data set can be described thus: Cell proliferation assay MTT, MV4-11. The following applies: read-out: Cytotoxicity IC50 Leukemia MV4-11; MTT assay, 72 hr treated.
The next data set has as its system MOLM13. The data set can be described thus: Cell proliferation assay MTT, MOLM13. Particulars: read-out: Cytotoxicity IC50 Leukemia MOLM13; MTT assay, 72 hr treated.
The next data set concerns HepG2. The data set can be described thus: Cell proliferation assay MTT, HepG2. The following applies: read-out: Cytotoxicity IC50 Liver HepG2, 72 hr treated.
Another data set concerns LNCap. Put plainly: Cell proliferation assay MTT, LNCaP. The following applies: read-out: Cytotoxicity IC50 Prostate LNCap, 72 hr treated.
The next data set has as its system U87MG. Put plainly: Cell proliferation assay MTT, U87MG. Particulars: read-out: Cytotoxicity IC50 Glioblastoma U87MG, 72 hr treated.
Another data set relates to PANC1. The data set can be described thus: Cell proliferation assay MTT, PANC1. The following applies: read-out: Cytotoxicity IC50 Pancreas PANC1, 72 hr treated.
Data set [1] in a line: in vitro. Particulars: monkey, Vero normal cells.
Procedure: (§5) Cells were seeded in 96-well plates at a density of 5×10^3 cells per well and allowed to attach for 24 h before compound treatment. […] At end of the treatment period 72 h, 20 μl (5 mg/mL) 3-(4,5-dimethylthiazol-2-yl)-2,5-diphenyl-tetrazolium bromide (MTT) reagent was added each well. After 4 h incubation at 37° C., the supernatant was aspirated and the formazan crystals were dissolved in 100 μl of DMSO at 37° C. for 10 min with gentle agitation. The absorbance was measured at 570 nm using the Molecular Devices Microplate Reader. […] IC50 values were calculated from the relative viability values and concentrations by regression analysis.
A further data set deals with Human HDAC8 (Homo sapiens (Human), UniProt Q9BY41). The data set can be described thus: HDAC enzymatic assay, HDAC8. It is filed as biochemical. The following applies: 10-dose IC50 mode with a 3-fold serial dilution; read-out: HDAC subtypes IC50 HDAC8. As for the experimental part:
as §1, §2, §4

In another data set the test system is HL60. Put plainly: Cell proliferation assay MTT, HL60. Particulars: read-out: Cytotoxicity IC50 Leukemia HL60, 72 hr treated.
The next data set relates to A549. Put plainly: Cell proliferation assay MTT, A549. Particulars: read-out: Cytotoxicity IC50 Lung A549, 72 hr treated.
Data set [2] can be described thus: in vitro. The following applies: human, FHs173We normal cells.
Procedure: as §5
A further data set addresses Human HDAC11 (Homo sapiens (Human), UniProt Q96DB2). The data set can be described thus: HDAC enzymatic assay, HDAC11. It is filed as biochemical. The following applies: 10-dose IC50 mode with a 3-fold serial dilution; read-out: HDAC subtypes IC50 HDAC11. The procedure: as §1, §2, §3, §4
In another data set the test system is Vero. The data set can be described thus: Cell proliferation assay MTT, Vero normal cells. The following applies: read-out: Cytotoxicity IC50 Monkey normal Vero, 72 hr treated.
For another data set, the system named is FHsWe. The data set can be described thus: Cell proliferation assay MTT, FHsWe normal cells. Particulars: read-out: Cytotoxicity IC50 Human normal FHsWe, 72 hr treated.

SMILES strings stand for the structures. Where only a bound is given, the exact number is not on record here.

Sequence of Human HDAC11 (Q96DB2 whole entry): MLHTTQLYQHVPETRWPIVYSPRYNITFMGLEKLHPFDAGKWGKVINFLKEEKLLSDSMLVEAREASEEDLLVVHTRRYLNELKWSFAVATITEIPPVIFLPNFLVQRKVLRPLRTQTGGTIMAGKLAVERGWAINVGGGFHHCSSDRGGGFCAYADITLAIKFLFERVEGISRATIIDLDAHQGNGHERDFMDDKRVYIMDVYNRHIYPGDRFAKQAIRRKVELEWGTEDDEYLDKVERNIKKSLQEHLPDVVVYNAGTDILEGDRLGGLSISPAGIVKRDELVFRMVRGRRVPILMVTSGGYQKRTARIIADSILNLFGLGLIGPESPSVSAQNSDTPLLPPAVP
Sequence of Human HDAC6 (Q9UBN7 whole entry): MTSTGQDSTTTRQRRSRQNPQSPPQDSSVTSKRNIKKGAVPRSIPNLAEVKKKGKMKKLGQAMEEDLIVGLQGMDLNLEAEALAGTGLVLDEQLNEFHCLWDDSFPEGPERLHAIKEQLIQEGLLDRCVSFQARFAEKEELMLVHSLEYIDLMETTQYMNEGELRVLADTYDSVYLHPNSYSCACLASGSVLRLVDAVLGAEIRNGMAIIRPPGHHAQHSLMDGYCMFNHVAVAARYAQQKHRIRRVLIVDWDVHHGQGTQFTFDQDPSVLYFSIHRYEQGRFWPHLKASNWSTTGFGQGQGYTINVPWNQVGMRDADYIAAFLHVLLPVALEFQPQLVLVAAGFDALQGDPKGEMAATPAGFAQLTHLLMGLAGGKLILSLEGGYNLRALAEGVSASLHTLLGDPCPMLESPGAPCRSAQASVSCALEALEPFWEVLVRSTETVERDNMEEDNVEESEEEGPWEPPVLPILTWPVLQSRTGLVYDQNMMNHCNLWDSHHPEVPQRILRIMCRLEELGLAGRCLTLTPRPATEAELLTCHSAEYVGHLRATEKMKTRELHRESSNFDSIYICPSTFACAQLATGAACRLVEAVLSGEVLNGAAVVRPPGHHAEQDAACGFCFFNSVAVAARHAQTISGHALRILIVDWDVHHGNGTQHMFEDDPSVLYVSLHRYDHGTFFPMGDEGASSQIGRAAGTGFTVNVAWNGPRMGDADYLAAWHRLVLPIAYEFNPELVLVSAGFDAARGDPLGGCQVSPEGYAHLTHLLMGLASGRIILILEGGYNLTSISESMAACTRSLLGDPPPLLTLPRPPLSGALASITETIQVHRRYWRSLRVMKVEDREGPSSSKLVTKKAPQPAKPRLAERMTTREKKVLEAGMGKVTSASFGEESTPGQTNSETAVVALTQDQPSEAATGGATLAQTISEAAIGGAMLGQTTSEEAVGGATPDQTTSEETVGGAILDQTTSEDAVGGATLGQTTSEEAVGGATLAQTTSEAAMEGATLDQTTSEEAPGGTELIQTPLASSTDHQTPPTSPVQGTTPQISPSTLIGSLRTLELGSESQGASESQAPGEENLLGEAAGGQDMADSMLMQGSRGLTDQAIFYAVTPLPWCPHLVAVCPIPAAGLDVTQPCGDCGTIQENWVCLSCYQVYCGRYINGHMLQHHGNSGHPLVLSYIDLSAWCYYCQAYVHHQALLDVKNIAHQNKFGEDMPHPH
Sequence of Human HDAC8 (Q9BY41 whole entry): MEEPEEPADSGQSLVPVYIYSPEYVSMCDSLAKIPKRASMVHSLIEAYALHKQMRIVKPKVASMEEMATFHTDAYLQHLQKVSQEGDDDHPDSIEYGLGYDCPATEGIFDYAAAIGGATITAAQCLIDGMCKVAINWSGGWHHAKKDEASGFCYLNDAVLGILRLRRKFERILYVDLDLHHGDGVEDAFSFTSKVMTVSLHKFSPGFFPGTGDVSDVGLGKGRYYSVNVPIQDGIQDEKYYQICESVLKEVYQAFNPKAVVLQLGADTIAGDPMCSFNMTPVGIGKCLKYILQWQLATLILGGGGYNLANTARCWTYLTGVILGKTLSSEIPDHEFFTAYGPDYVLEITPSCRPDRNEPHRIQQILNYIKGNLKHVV
Sequence of Human HDAC1 (Q13547 whole entry): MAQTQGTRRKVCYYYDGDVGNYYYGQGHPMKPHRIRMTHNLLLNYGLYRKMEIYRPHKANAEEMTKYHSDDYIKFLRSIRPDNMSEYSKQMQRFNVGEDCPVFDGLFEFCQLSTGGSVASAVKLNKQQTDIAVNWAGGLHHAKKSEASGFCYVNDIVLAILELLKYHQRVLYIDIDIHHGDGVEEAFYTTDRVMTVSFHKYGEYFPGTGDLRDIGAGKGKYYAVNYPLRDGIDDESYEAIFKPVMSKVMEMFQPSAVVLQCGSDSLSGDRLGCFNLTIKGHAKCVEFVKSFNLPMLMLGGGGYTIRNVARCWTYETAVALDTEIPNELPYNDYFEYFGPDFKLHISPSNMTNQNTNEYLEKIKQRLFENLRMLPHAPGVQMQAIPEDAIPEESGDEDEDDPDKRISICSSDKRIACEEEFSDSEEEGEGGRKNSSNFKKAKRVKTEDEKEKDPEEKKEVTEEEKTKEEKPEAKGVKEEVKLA
Procedure for A549: as §5
Procedure for FHsWe: as §5
Procedure for HL60: as §5
Procedure for HepG2: as §5
Procedure for LNCap: as §5
Procedure for MOLM13: as §5
Procedure for MV4-11: as §5
Procedure for PANC1: as §5
Procedure for U87MG: as §5
Procedure for Vero: as §5

For the compound `N#Cc1ccc2c(=O)n(CCc3ccccc3)c(=O)n(Cc3ccc(C(=O)NO)cc3)c2c1` [Compound 3, 4-((7-cyano-2,4-dioxo-3-phenethyl-3,4-dihydroquinazolin-1(2H)-yl)methyl)-N-hydroxybenzamide], the concentration for half-maximal inhibition (IC50) was 12 µM on Human HDAC1; 13.5 µM on Human HDAC6; > 10 µM with MV4-11; > 10 µM in the data set with MOLM13; > 10 µM in the data set on HepG2; > 10 µM in the data set with LNCap. For the same compound, the IC50 in the data set on U87MG is > 10 µM; in the data set with PANC1, > 10 µM; on Human HDAC8, 1.3 µM; with HL60, > 10 µM; in the data set on A549, > 10 µM. Besides, the IC50 at 72 h in “in vitro [1]” was > 10 µM; in “in vitro [2]” it was > 200 µM.
Regarding `O=C(NO)c1ccc(Cn2c(=O)n(CCc3ccccc3)c(=O)c3ccccc32)cc1` [Compound 5, 4-((2,4-dioxo-3-phenethyl-3,4-dihydroquinazolin-1(2H)-yl)methyl)-N-hydroxybenzamide], the 50% inhibitory concentration (IC50) is 11.2 µM on Human HDAC1; 0.004 µM at Human HDAC6; 0.17 ± 0.05 µM in the data set with MV4-11; 0.16 ± 0.03 µM in the data set on MOLM13; 1.93 ± 0.25 µM in the data set with HepG2; 13.9 µM on Human HDAC11. Moreover, the IC50 came out at 0.44 ± 0.07 µM in the data set on LNCap; 1.56 ± 0.14 µM in the data set on U87MG; 4.15 ± 0.27 µM in the data set with PANC1; 0.376 µM at Human HDAC8; 0.25 ± 0.03 µM in the data set with HL60; 3.75 ± 0.39 µM with A549. For the same compound, the IC50 at 72 h in the data set “in vitro [1]” was 91.38 ± 0.47 µM; in the data set “in vitro [2]”, 83.21 ± 0.62 µM.
As for `O=C(NO)c1ccc(Cn2c(=O)n(CCc3ccccc3)c(=O)c3ccc(C(F)(F)F)cc32)cc1` [Compound 13, 4-((2,4-dioxo-3-phenethyl-7-(trifluoromethyl)-3,4-dihydroquinazolin-1(2H)-yl)methyl)-N-hydroxybenzamide], the IC50 at Human HDAC1 was 8.02 µM; at Human HDAC6, 0.635 µM; in the data set on MV4-11, 0.83 ± 0.11 µM; in the data set on MOLM13, 0.92 ± 0.07 µM; in the data set with HepG2, 5.48 ± 0.27 µM; at Human HDAC11 it was 7.39 µM. For the same compound, the half-maximal inhibitory concentration (IC50) came to 5.92 ± 0.21 µM with LNCap; 5.87 ± 0.14 µM in the data set with U87MG; 8.29 ± 0.43 µM in the data set with PANC1; 1.44 µM on Human HDAC8; 0.87 ± 0.12 µM in the data set with HL60; 7.22 ± 0.29 µM in the data set on A549. For the same compound, the half-inhibitory concentration (IC50) at 72 h came out at 146.2 ± 0.41 µM in “in vitro [1]” and 131.7 ± 0.25 µM in the data set “in vitro [2]”.
Turning to `COc1ccccc1CCn1c(=O)c2ccccc2n(Cc2ccc(C(=O)NO)cc2)c1=O` [Compound 15, N-hydroxy-4-((3-(2-methoxyphenethyl)-2,4-dioxo-3,4-dihydroquinazolin-1(2H)-yl)methyl)benzamide], the half-maximal inhibitory concentration (IC50) on Human HDAC6 amounted to 0.011 µM; with MV4-11, 1.65 ± 0.03 µM; in the data set on MOLM13, 1.47 ± 0.07 µM; in the data set on HepG2 it was 7.11 ± 0.28 µM; on Human HDAC11, 34.4 µM; in the data set on LNCap, 5.71 ± 0.32 µM. The 50% inhibitory concentration (IC50) with U87MG was 7.08 ± 0.8 µM; with PANC1 it was > 10 µM; at Human HDAC8 it was 0.525 µM; in the data set on HL60, 1.22 ± 0.08 µM; in the data set with A549, 5.69 ± 0.21 µM. Also, the results for the IC50 at 72 h in the data set “in vitro [1]” and in “in vitro [2]” were 96.92 ± 0.11 µM and 55.44 ± 0.09 µM, respectively.
Consider `O=C(CCCCCCC(=O)Nc1ccccc1)NO` [SAHA, reference compound], for which the concentration for half-maximal inhibition (IC50) in the data set with Vero was 26.6 µM; with HL60, 1.85 ± 0.08 µM.
In the case of `CN1CCc2c(c3ccccc3n2Cc2ccc(C(=O)NO)cc2)C1` [Tubastatin A, reference compound], the IC50 is > 10 µM in the data set with HepG2; > 10 µM in the data set on LNCap; > 10 µM with U87MG; > 10 µM in the data set on PANC1; 46.5 µM in the data set on FHsWe; 39.9 µM with Vero. Further, the IC50 in the data set on A549 was > 10 µM.

For the origin of these results see patent US11535598B2, “Histone deacetylases (HDACs) inhibitors” (ANNJI PHARMACEUTICAL CO., LTD., priority 2017, dated 2022).
